What was measured:
FAAH [1] = molecular target: T1, FAAH (Mus musculus, UniProt O08914); experiment: In vivo FAAH inhibition after oral dosing, remaining activity in brain homogenate (BRh, central nervous tissue); set-up: species or system NMRI mice; conditions: brain homogenate, 3 mg/kg, 8 h after dosing; low value = strong inhibitor
T1 construct: A fragment of liver, left lung lobe and brain without cerebellum were removed; from tissue; host or cells: male NMRI mice; brain (without cerebellum) and liver homogenates
T1 sequence (O08914 1-579): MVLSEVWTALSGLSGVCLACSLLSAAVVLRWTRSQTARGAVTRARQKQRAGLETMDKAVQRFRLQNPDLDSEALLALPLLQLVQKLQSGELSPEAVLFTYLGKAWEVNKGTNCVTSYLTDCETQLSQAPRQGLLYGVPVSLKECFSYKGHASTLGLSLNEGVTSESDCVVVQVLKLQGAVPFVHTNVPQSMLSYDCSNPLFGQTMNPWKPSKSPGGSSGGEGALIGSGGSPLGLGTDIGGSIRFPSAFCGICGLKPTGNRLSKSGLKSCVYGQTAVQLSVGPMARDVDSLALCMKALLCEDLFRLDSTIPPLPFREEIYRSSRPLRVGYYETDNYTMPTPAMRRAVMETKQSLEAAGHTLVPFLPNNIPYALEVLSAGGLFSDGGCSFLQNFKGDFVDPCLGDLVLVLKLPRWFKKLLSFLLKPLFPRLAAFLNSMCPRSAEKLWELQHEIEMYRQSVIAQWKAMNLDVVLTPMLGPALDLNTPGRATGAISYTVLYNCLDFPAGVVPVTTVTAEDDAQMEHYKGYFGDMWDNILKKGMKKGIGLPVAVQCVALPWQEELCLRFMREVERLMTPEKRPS
How it was run: (§1)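 Male NMRI mice, fasted overnight, got 30 or 3 mg/kg compound orally (0.5% CMC suspension or water) and were compared with vehicle controls. Brain (no cerebellum) and liver homogenates were incubated with 2 μM AEA plus 5 nM 3H-AEA at 37 °C, 10 min for brain and 7 min for liver. Remaining FAAH activity is % of vehicle after blank subtraction.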

FAAH [2] = molecular target: T2, FAAH (Rattus norvegicus, UniProt P97612); experiment: In vitro FAAH activity in rat brain membranes, 3H-AEA substrate, % of control; type: biochemical, Wistar rats; conditions: rat brain membranes, compound at 100 nM, low value = strong inhibitor
T2 construct: Frozen brains (without cerebellum) from Wistar rats were used; from tissue; host or cells: Wistar rat brain (without cerebellum), washed membrane pellets
T2 sequence (P97612 1-579): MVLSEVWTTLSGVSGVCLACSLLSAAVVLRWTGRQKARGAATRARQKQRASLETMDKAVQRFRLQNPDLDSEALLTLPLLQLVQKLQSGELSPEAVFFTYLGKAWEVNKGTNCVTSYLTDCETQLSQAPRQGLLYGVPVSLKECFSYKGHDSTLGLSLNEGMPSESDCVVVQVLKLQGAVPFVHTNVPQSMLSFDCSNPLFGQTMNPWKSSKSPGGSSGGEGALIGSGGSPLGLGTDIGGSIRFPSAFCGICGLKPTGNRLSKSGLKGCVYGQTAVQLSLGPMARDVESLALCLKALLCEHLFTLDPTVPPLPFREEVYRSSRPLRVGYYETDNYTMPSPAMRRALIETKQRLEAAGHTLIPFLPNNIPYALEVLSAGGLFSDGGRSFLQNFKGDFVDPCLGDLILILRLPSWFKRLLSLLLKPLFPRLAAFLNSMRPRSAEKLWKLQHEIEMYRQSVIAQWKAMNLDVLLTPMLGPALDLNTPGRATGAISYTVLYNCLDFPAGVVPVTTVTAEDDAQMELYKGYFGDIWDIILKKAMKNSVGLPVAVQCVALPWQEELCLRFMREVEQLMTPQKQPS
How it was run: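 Wistar rat brain membranes (5 μg protein) preincubated 15 min at 37 °C with compound at 10 μM or 0.1 μM (0.1% DMSO), then 2 μM AEA including 3H-AEA with 0.1% BSA, Tris pH 7.6, 10 min. 3H-ethanolamine counted after charcoal stop; % of no-compound control after blank subtraction.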

FAAH [3] = molecular target: T1, FAAH; experiment: In vivo FAAH inhibition after oral dosing, remaining activity in liver homogenate (LVh, peripheral tissue); set-up: species or system NMRI mice; conditions: liver homogenate, 3 mg/kg, 8 h after dosing; low value = strong inhibitor
How it was run: as §1

Row | Compound | In Vivo BRh 3 mg·kg 8 h (remaining FAAH activity, % of control) (FAAH [1]) | In Vitro 100 nM (FAAH activity, % of control) (FAAH [2]) | In Vivo LVh 3 mg·kg 8 h (remaining FAAH activity, % of control) (FAAH [3])
1 | CN(C(=O)n1cnc(-c2ccc(OC(F)F)cc2)c1)C1CCCCC1 [Compound 276, N-cyclohexyl-4-(4-(difluoromethoxy)phenyl)-N-methyl-1H-imidazole-1-carboxamide] | 1.4 % of control | 71.5 % of control | 2 % of control
2 | CN(C(=O)n1cnc(-c2ccccc2)c1)C1CCOCC1 [Compound 278, N-methyl-4-phenyl-N-(tetrahydro-2H-pyran-4-yl)-1H-imidazole-1-carboxamide] | 1.6 % of control | 103.5 % of control | 1.8 % of control
3 | Cc1nc(-c2ccccc2)cn1C(=O)N(C)C1CCCCC1 [Compound 279, N-cyclohexyl-N,2-dimethyl-4-phenyl-1H-imidazole-1-carboxamide] | 91.6 % of control | 87.3 % of control | 94.1 % of control
4 | CN(C(=O)n1cnc(-c2ccccc2)c1)C1CCN(Cc2ccccc2)CC1 [Compound 282, N-(1-benzylpiperidin-4-yl)-N-methyl-4-phenyl-1H-imidazole-1-carboxamide] | 0.5 % of control | 40.9 % of control | 1.6 % of control
5 | Cc1nc(-c2ccccc2)nn1C(=O)N(C)C1CCCCC1 [Compound 284, N-cyclohexyl-N,5-dimethyl-3-phenyl-1H-1,2,4-triazole-1-carboxamide] | 130.7 % of control | 146.2 % of control | 145.6 % of control
6 | Cc1nc(-c2ccccc2)nn1C(=O)N1COCC1(C)C [Compound 286, (4,4-dimethyloxazolidin-3-yl)(5-methyl-3-phenyl-1H-1,2,4-triazol-1-yl)methanone] | 104 % of control | 112.8 % of control | 93 % of control
7 | CN(C(=O)n1cnc(-c2cccc(-c3cccc(C(N)=O)c3)c2)c1)C12CC3CC(CC(C3)C1)C2 [Compound 287, 4-(3′-carbamoylbiphenyl-3-yl)-N-methyl-N-tricyclo[3.3.1.13,7]dec-1-yl-1H-imidazole-1-carboxamide-propan-2-ol (1:1)] | 105.8 % of control | 127.3 % of control | 85.7 % of control
8 | CN(C(=O)n1cnc(-c2cccnc2)c1)C12CC3CC(CC(C3)C1)C2 [Compound 289, N-methyl-4-pyridin-3-yl-N-tricyclo[3.3.1.13,7]dec-1-yl-1H-imidazole-1-carboxamide] | 113.2 % of control | 109.8 % of control | 96.1 % of control
9 | CC1(C)COCN1C(=O)n1cnc(-c2ccccc2)c1Cl [Compound 295, (5-chloro-4-phenyl-1H-imidazol-1-yl)(4,4-dimethyloxazolidin-3-yl)methanone] | 77.9 % of control | 99.2 % of control | 32.4 % of control
10 | CN(C(=O)n1cnc(-c2cccc(O)c2)c1)C1CCCCC1 [Compound 307, N-cyclohexyl-4-(3-hydroxyphenyl)-N-methyl-1H-imidazole-1-carboxamide] | 137.6 % of control | 56.2 % of control | 10.1 % of control
11 | COc1ccc(-c2cn(C(=O)N(C)C3CCCCC3)cn2)cc1F [Compound 314, N-cyclohexyl-4-(3-fluoro-4-methoxyphenyl)-N-methyl-1H-imidazole-1-carboxamide] | 84.3 % of control | 84.3 % of control | 48 % of control
12 | COc1cc(-c2cn(C(=O)N(C)C3CCCCC3)cn2)ccc1F [Compound 319, N-cyclohexyl-4-(4-fluoro-3-methoxyphenyl)-N-methyl-1H-imidazole-1-carboxamide] | 5.9 % of control | 19.2 % of control | 2 % of control
13 | COc1cccc(-c2cn(C(=O)N3COCC3(C)C)cn2)c1 [Compound 329, (4,4-dimethyloxazolidin-3-yl)(4-(3-methoxyphenyl)-1H-imidazol-1-yl)methanone] | 83.3 % of control | 99.5 % of control | 18.5 % of control
14 | CN(C(=O)n1cnc(-c2ccc(O)c(F)c2)c1)C1CCCCC1 [Compound 330, N-cyclohexyl-4-(3-fluoro-4-hydroxyphenyl)-N-methyl-1H-imidazole-1-carboxamide] | 22.8 % of control | 29.7 % of control | 11.1 % of control
15 | CN(C(=O)n1cnc(-c2ccc(O)c(F)c2)c1)C1CCCC1 [Compound 331, N-cyclopentyl-4-(3-fluoro-4-hydroxyphenyl)-N-methyl-1H-imidazole-1-carboxamide] | 4 % of control | 3.6 % of control | 4.9 % of control
16 | CC1(C)COCN1C(=O)n1cnc(-c2ccc(O)c(F)c2)c1 [Compound 332, (4,4-dimethyloxazolidin-3-yl)(4-(3-fluoro-4-hydroxyphenyl)-1H-imidazol-1-yl)methanone] | 60 % of control | 88.5 % of control | 19.5 % of control
17 | CC1(C)COCN1C(=O)n1cnc(-c2ccc(F)c(O)c2)c1 [Compound 333, (4,4-dimethyloxazolidin-3-yl)(4-(4-fluoro-3-hydroxyphenyl)-1H-imidazol-1-yl)methanone] | 119 % of control | 81.9 % of control | 81.5 % of control
18 | CN(C(=O)n1cnc(-c2cc3ccccc3o2)c1)C1CCCCC1 [Compound 334, 4-(benzofuran-2-yl)-N-cyclohexyl-N-methyl-1H-imidazole-1-carboxamide] | 9.9 % of control | 58.2 % of control | 5.1 % of control
19 | CN(C(=O)n1cnc(-c2cccnc2)c1)C1CCCCC1 [Compound 335, N-cyclohexyl-N-methyl-4-(pyridin-3-yl)-1H-imidazole-1-carboxamide] | 3.1 % of control | 75.4 % of control | 1 % of control
